The target of assay [1] is T1, system Xc^− (Homo sapiens, UniProt Q9UPY5).
T1 sequence (Q9UPY5 1-501): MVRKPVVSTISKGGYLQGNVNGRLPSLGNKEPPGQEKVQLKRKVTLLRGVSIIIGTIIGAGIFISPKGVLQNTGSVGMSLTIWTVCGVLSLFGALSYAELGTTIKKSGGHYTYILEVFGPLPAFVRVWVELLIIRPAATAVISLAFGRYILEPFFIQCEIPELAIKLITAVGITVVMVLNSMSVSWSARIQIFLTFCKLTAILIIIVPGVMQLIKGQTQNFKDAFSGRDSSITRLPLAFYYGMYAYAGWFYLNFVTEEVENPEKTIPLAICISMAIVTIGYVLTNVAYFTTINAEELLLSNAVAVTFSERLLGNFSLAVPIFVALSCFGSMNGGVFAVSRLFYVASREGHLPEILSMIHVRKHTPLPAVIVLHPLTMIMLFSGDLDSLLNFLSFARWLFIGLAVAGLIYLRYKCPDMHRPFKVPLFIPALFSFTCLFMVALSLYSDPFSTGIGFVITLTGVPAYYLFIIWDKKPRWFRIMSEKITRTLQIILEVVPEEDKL
T1 sequence (P08195 1-529 partner): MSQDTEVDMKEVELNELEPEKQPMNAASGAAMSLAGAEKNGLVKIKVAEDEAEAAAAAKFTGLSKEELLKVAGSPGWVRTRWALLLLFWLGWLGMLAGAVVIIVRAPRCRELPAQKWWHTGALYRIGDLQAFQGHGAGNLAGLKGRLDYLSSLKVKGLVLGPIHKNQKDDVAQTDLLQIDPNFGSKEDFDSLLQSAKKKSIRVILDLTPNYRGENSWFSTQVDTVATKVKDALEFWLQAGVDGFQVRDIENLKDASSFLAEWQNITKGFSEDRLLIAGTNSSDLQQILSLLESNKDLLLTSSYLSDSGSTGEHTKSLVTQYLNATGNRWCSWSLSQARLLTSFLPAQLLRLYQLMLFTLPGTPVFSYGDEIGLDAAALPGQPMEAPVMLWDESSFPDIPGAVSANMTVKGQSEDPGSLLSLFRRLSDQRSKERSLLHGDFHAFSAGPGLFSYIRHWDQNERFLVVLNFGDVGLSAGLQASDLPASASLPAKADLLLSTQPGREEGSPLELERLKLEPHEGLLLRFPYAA
Kind of assay: Cystine-induced glutamate release assay. It is filed as cell-based. Also on record: endogenous in cells; host or cells: H4 cells. Conditions: H4 cells, sodium-free HEPES buffer, 50 μM L-Cystine, 2 hours, Amplex Red glutamate readout; read-out: pIC50 Cystine-induced glutamate release assay (converted). A digest of the protocol:
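H4 cells in sodium-free HEPES buffer (pH 7.4), 2 days after plating; glutamate release induced with 50 μM L-cystine plus compound (1% DMSO), 2 h at 37 °C. Supernatant glutamate measured by Amplex Red fluorescence; IC50/pIC50 derived between 1% DMSO and 50 μM erastin controls.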

Assay [2] has as its target T1, system Xc^−. Kind of assay: [^14C]L-Cystine uptake assay. The format is cell-based. Also on record: endogenous in cells; host or cells: H4 cells. The conditions noted are these: H4 cells, sodium-free HEPES buffer, 0.5 μM L-[14C]Cystine and 4.5 μM L-Cystine, 1 hour at 37° C.; read-out: pIC50 [^14C] L-Cystine uptake assay (converted). A digest of the protocol: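 H4 cells at 5×10^4 cells/well in sodium-free HEPES buffer were preincubated 15 min with compounds (1% DMSO). Uptake of 0.5 μM [14C]L-cystine plus 4.5 μM unlabelled L-cystine ran 1 hour at 37° C on scintillating plates. IC50 was set between 1% DMSO and 50 μM Erastin controls and expressed as pIC50.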

The values below come from patent US20260217708A1, “FUSED BENZAZEPINE DERIVATIVES FOR USE IN THE TREATMENT OF CANCER AND EPILEPSY” (UCB BIOPHARMA SRL, priority 2023, published 2026).

On to `Cc1cc2c(cn1)-c1ncccc1C(C)C(=O)N2CC(=O)Nc1ccc(Cl)c(F)c1` (single isomer, unassigned) [#407, N-(4-chloro-3-fluoro-phenyl)-2-[8,13-dimethyl-9-oxo-3,10,14-triazatricyclo[9.4.0.0^2,7]pentadeca-1(15),2,4,6,11,13-hexaen-10-yl]acetamide], for which the IC50 in assay [1] and in assay [2] was 39.8 to 100 nM in each case.

`CCn1c(C)cc2c(c1=O)-c1cccnc1CC(=O)N2CC(=O)Nc1ccc(C(F)(F)F)cc1` [#125, 2-(4-ethyl-5-methyl-3,9-dioxo-4,8,12-triazatricyclo[9.4.0.0^2,7]pentadeca-1(15),2(7),5,11,13-pentaen-8-yl)-N-[4-(trifluoromethyl)phenyl]acetamide]: the IC50 in assay [1] and in assay [2] was 39.8 to 100 nM in each case.

Take `Cc1cc2c(c(F)n1)-c1nccnc1C(C)C(=O)N2CC(=O)Nc1ccc(Cl)c(F)c1` (single isomer, unassigned) [#408, N-(4-chloro-3-fluoro-phenyl)-2-[15-fluoro-8,13-dimethyl-9-oxo-3,6,10,14-tetrazatricyclo[9.4.0.0^2,7]pentadeca-1(15),2,4,6,11,13-hexaen-10-yl]acetamide]: the IC50 in assay [1] and in assay [2] was 39.8 to 100 nM in each case.

Regarding `Cc1cc2c(c(F)n1)-c1cccnc1C(O)C(=O)N2CC(=O)Nc1ccc(C(F)(F)F)cc1` (stereo not drawn) [#94, 2-(3-fluoro-10-hydroxy-5-methyl-9-oxo-4,8,12-triazatricyclo[9.4.0.0^2,7]pentadeca-1(15),2(7),3,5,11,13-hexaen-8-yl)-N-[4-(trifluoromethyl)phenyl]acetamide], the IC50 in assay [1] and in assay [2] was 39.8 to 100 nM each time.

In the case of `COc1cc2c(c(OC)n1)-c1cccnc1C(C)C(=O)N2CC(=O)Nc1ccc(C(F)(F)F)cn1` (single isomer, unassigned) [#336, 2-[3,5-dimethoxy-10-methyl-9-oxo-4,8,12-triazatricyclo[9.4.0.0^2,7]pentadeca-1(15),2(7),3,5,11,13-hexaen-8-yl]-N-[5-(trifluoromethyl)-2-pyridyl]acetamide], the IC50 in assay [1] is 15.8 to 39.8 nM; in assay [2], 39.8 to 100 nM.

With `COc1ccc2c(c1)-c1c(cc(C)nc1Cl)N(CC(=O)Nc1ccc(C(F)(F)F)cc1)C(=O)C2C` (stereo not drawn) [#164, 2-(1-chloro-10-methoxy-3,7-dimethyl-6-oxo-7H-pyrido[4,3-d][3]benzazepin-5-yl)-N-[4-(trifluoromethyl)phenyl]acetamide], the IC50 in assay [1] is 100 to 501 nM; in assay [2], 39.8 to 100 nM.

`C[C@H]1C(=O)N(CC(=O)Nc2ccc(C(F)F)cc2)c2cc(N3CC[C@H](O)C3)nc(F)c2-c2cccnc21` (single isomer, unassigned) [#279, N-[4-(difluoromethyl)phenyl]-2-[3-fluoro-5-[3-hydroxypyrrolidin-1-yl]-10-methyl-9-oxo-4,8,12-triazatricyclo[9.4.0.0^2,7]pentadeca-1(15),2,4,6,11,13-hexaen-8-yl]acetamide]: the IC50 in assay [1] and in assay [2] was under 15.8 nM throughout.

For `Cc1cc2c(c(Cl)n1)-c1cccnc1C(C)C(=O)N2CC(=O)Nc1ccc(C(F)F)nc1` (single isomer, unassigned) [#230, Enantiomer (10R) or (10S) of 2-[3-chloro-5,10-dimethyl-9-oxo-4,8,12-triazatricyclo[9.4.0.0^2,7]pentadeca-1(11),2(7),3,5,12,14-hexaen-8-yl]-N-[6-(difluoromethyl)-3-pyridyl]acetamide], the IC50 in assay [1] and in assay [2] was 15.8 to 39.8 nM in each case.

Regarding `CC1C(=O)N(CC(=O)Nc2ccc(C(F)F)cc2)c2cc(N3CC(F)(F)C3)nc(F)c2-c2cccnc21` (single isomer, unassigned) [#280, 2-[5-(3,3-difluoroazetidin-1-yl)-3-fluoro-10-methyl-9-oxo-4,8,12-triazatricyclo[9.4.0.0^2,7]pentadeca-1(11),2(7),3,5,12,14-hexaen-8-yl]-N-[4-(difluoromethyl)phenyl]acetamide], the IC50 in assay [1] and in assay [2] was under 15.8 nM throughout.

As for `Cc1cc2c(c(F)n1)-c1cncnc1C(C)C(=O)N2CC(=O)Nc1ccc(C(F)F)cc1` (single isomer, unassigned) [#218, Enantiomer (8S) or (8S) of (N-[4-(difluoromethyl)phenyl]-2-[15-fluoro-8,13-dimethyl-9-oxo-4,6,10,14-tetrazatricyclo[9.4.0.0^2,7]pentadeca-1(15),2,4,6,11,13-hexaen-10-yl]acetamide], the IC50 in assay [1] is 15.8 to 39.8 nM; in assay [2], 100 to 501 nM.

As to `C[C@H]1C(=O)N(CC(=O)Nc2ccc(C(F)F)cc2)c2cc(N3CC4C(C3)C4(F)F)nc(F)c2-c2cccnc21` (single isomer, unassigned) [#289, 2-[5-(6,6-difluoro-3-azabicyclo[3.1.0]hexan-3-yl)-3-fluoro-10-methyl-9-oxo-4,8,12-triazatricyclo[9.4.0.0^2,7]pentadeca-1(11),2(7),3,5,12,14-hexaen-8-yl]-N-[4-(difluoromethyl)phenyl]acetamide], the IC50 in assay [1] was 15.8 to 39.8 nM; in assay [2], under 15.8 nM.

Regarding `Cc1cc2c(c(Cl)n1)-c1cccnc1C(C)C(=O)N2CC(=O)Nc1ccc(C(F)(F)F)cc1F` (single isomer, unassigned) [#225, Enantiomer (10S) or (10R) of N-[2-fluoro-4-(trifluoromethyl)phenyl]-2-[3-chloro-5,10-dimethyl-9-oxo-4,8,12-triazatricyclo[9.4.0.0^2,7]pentadeca-1(11),2(7),3,5,12,14-hexaen-8-yl]acetamide], the IC50 in assay [1] and in assay [2] was under 15.8 nM throughout.

Regarding `O=C(CN1C(=O)Cc2ncccc2-c2c1cc(N1CC(F)(F)C1)nc2F)Nc1ccc(C(F)F)cc1` [#295, 2-[5-(3,3-difluoroazetidin-1-yl)-3-fluoro-9-oxo-4,8,12-triazatricyclo[9.4.0.0^2,7]pentadeca-1(15),2,4,6,11,13-hexaen-8-yl]-N-[4-(difluoromethyl)phenyl]acetamide], the IC50 in assay [1] and in assay [2] was under 15.8 nM each time.

With `Cc1cc2c(c(=O)o1)-c1ccccc1C(C)C(=O)N2CC(=O)Nc1ccc(C(F)F)cc1` (single isomer, unassigned) [#359, N-[4-(difluoromethyl)phenyl]-2-[3,7-dimethyl-1,6-dioxo-7H-pyrano[4,3-d][3]benzazepin-5-yl]acetamide], the IC50 in assay [1] and in assay [2] was 15.8 to 39.8 nM throughout.

Turning to `CC(=O)OCc1cc2c(cn1)-c1ccccc1CC(=O)N2CC(=O)Nc1ccc(C(F)(F)F)cc1` [#59, [6-oxo-5-[2-oxo-2-[4-(trifluoromethyl)anilino]ethyl]-7H-pyrido[4,3-d][3]benzazepin-3-yl]methyl acetate], the IC50 in assay [1] and in assay [2] was 100 to 501 nM throughout.

For `CN1CCN(c2cc3c(cn2)-c2ccccc2CC(=O)N3CC(=O)Nc2ccc(C(F)(F)F)cc2)CC1=O` [#46, 2-[3-(4-methyl-3-oxo-piperazin-1-yl)-6-oxo-7H-pyrido[4,3-d][3]benzazepin-5-yl]-N-[4-(trifluoromethyl)phenyl]acetamide], the results for the IC50 in assay [1] and in assay [2] were 39.8 to 100 nM and 15.8 to 39.8 nM, respectively.

Regarding `Cc1cc2c(c(Cl)n1)-c1ccnn1C(C)C(=O)N2CC(=O)Nc1ccc(C(F)F)cc1` (single isomer, unassigned) [#386, 2-[14-chloro-7,12-dimethyl-8-oxo-5,6,9,13-tetrazatricyclo[8.4.0.0^2,6]tetradeca-1(14),2,4,10,12-pentaen-9-yl]-N-[4-(difluoromethyl)phenyl]acetamide], the IC50 in assay [1] and in assay [2] was under 15.8 nM throughout.

Consider `Cc1cc2c(c(C)n1)-c1cc(F)ccc1CC(=O)N2CC(=O)Nc1ccc(C(F)(F)F)cc1` [#63, 2-(10-fluoro-1,3-dimeth-yl-6-oxo-7H-pyrido[4,3-d][3]benzazepin-5-yl)-N-[4-(trifluoromethyl)-phenyl]acetamide], for which the IC50 was 15.8 to 39.8 nM in assay [1] and under 15.8 nM in assay [2].
